Consider 16 molecules from patent US7625891B2, “Heterocylic antiviral compounds” (Roche Palo Alto LLC, priority 2007, dated 2009).

Bounds are passed on as bounds.

The test system of one data set is NLBal pseudotyped HIV-1. The experiment in a line: microbe, parasite or virus in culture. Particulars: Human immunodeficiency virus 1, JC53BL, 72 h. The data set is classed as cell-based. As to the method: The sensitivity of a recombinant HIV-1 virus pseudotyped with the envelope proteins of the CCR5-tropic virus NLBal to test compounds was determined in a Luciferase reporter assay using JC53BL cells. NLBal pseudotyped HIV-1 was generated by calcium phosphate transfection of 293T cells (ATCC) with equal amounts of DNA of an envelope-deleted HIV-1 plasmid and of a NLBal envelope expression plasmid. The media (DMEM, 10% fetal bovine serum, 1% Penicillin/streptomycin, 1% Glutamine, all Gibco) was changed 16 h post-transfection and virus containing supernatant was harvested 48 h post-transfection. To determine the sensitivity of NLBal pseudotyped HIV-1, 25.000 JC53BL cells (NIH AIDS Reagent Program) were infected with NLBal pseudotyped HIV-1 in presence of a drug gradient in white 96 well plates (Greiner Bio-one). The volume was adjusted to 200 μL using assay media (DMEM, 10% fetal bovine serum, 1% Penicillin/streptomycin, 1% Glutamine). After incubation at 37° C., 90% relative humidity, 5% CO2 for 3 days, 50 μL of Steady-Glo® Luciferase reagent (Promega) was added, incubated for 5 min at RT and luminescence was measured using a luminometer (Luminoskan, Thermo). The 50% and 90% inhibitory concentrations were calculated using Microsoft XL Fit 4 software.

Data set [1] addresses T1, CCR5 (Homo sapiens, UniProt P51681). The experiment in a line: Human CCR5 receptor-ligand binding assay (125I RANTES, CHO-Gα16-hCCR5 cells). The arrangement: expressed in transfected cells. The method, then: The construct was transfected into CHO-Gα16 cells by using Fugene Reagent (Roche).
Adherent cells in […] tissue culture flask (ca. 90% confluent) were harvested using 1 mM EDTA in PBS (phosphate-buffered saline) without Ca^2+ and Mg^2+. Cells were washed twice with PBS containing no Ca^2+ and Mg^2+.
Eighty μl CHO-Gα16-hCCR5 (1×10^6/mL) cells were added to 96 well plates.
The compound dilutions were made in PBS, 1% BSA. Total reaction volume was 100 μl per well. The test compounds were added to the cells prior to the addition of radioligand.
After incubation, the cells were harvested onto GF/C filter plates using Packard cell harvester. Filters were pretreated with 0.3% PEI/0.2% BSA for 30 min. The filter plate was washed rapidly 5 times with 25 mM HEPES, 500 mM NaCl, 1 mM CaCl2 and 5 mM MgCl2 adjusted to pH 7.1. Plates were dried in oven (70° C.) for 20 min, added with 40 μl scintillation fluid and sealed with Packard TopSeal-A. Packard Top Count was used to measure of the radioactivity for 1 min per well.
Total binding was determined with control wells added with radioisotope and buffer and the non-specific binding was determined using an excess cold RANTES to some of the control wells. Specific binding was determined by subtracting the non-specific form total binding. […] IC50 values were determined using varying concentrations of the test ligand in triplicates and the data was analyzed using GraphPad Prism (GraphPad, San Diego, Calif.).

Data set [2] deals with T1, CCR5. Put plainly: CCR5-mediated CCF (cell-cell fusion) assay, Hela-R5 / CEM-NKr-CCR5-Luc, luciferase readout. The data set is classed as cell-based. Also on record: host or cells: CEM-NKr-CCR5-Luc cells. The following applies: 24 hrs co-culture. As to the method:
The capacity for novel compounds of the present invention to bind to the CCR5 receptor and thereby antagonize CCR5 function can be evaluated with assay systems known in the art. The capacity of compounds of the present invention to inhibit infection of CD4^+/CCR5^+ expressing cells can be determined using a cell-cell fusion assay as described in example 8 or an antiviral assay as described in example 9.
CCF assay was performed as described before (C. Ji, J. Zhang, N. Cammack and S. Sankuratri, J. Biomol. Screen. 2006 11(6):652-663). Hela-R5 cells (express gp160 from R5-tropic virus and HIV-1 Tat) were plated in 384 well white culture plates (BD Bioscience, Palo Alto, Calif.) at […] per well in phenol red-free Dulbecco's Modified Eagle Medium (DMEM) supplemented with 10% FBS, 1× Pen-Strep, 300 μg/mL G418, 100 μg/mL hygromycin, and 1 μg/mL Doxycycline (Dox) (BD Bioscience, Palo Alto, Calif.), using Multimek (Beckman, Fullerton, Calif.) and incubated at 37° C. overnight to induce the expression of gp160. Ten μL diluted compounds in medium containing 5% DMSO were added to the cells, followed by the addition of CEM-NKr-CCR5-Luc (obtained from NIH AIDS Research & Reference Reagents Program) that expresses CD4 and CCR5 and carries a […] long terminal repeat (LTR)-driven luciferase reporter gene at 1.5×10^4 cells/15 μL/well and incubated for 24 hrs. At the end of co-culture, 15 μL of Steady-Glo luciferase substrate was added into each well, and the cultures were sealed and gently shaken for 45 min. The luciferase activity were measured for 10 sec per well as luminescence by using 16-channel TopCount NXT (PerkinElmer, Shelton, CT) with 10 min dark adaptation and the readout is count per second (CPS). For the drug interaction experiments, small molecule compounds or antibodies were serially diluted in serum-free and phenol red-free RPMI containing 5% DMSO (CalBiochem, La Jolla, Calif.) and 1× Pen-Strep. Five μL each of the two diluted compound or mAb to be tested for drug-drug interactions were added to the Hela-R5 cells right before the addition of target cells.

In data set [3] the test system is collagen-induced arthritis. Particulars: collagen-induced arthritis model; cited from earlier work.
The subject of the next data set is HIV. The following applies: cited from earlier work.
Where [4] appears, read: specific 125I RANTES binding, CHO-Gα16-hCCR5 cells, read-out: IC50.

T1 sequence (P51681 whole entry): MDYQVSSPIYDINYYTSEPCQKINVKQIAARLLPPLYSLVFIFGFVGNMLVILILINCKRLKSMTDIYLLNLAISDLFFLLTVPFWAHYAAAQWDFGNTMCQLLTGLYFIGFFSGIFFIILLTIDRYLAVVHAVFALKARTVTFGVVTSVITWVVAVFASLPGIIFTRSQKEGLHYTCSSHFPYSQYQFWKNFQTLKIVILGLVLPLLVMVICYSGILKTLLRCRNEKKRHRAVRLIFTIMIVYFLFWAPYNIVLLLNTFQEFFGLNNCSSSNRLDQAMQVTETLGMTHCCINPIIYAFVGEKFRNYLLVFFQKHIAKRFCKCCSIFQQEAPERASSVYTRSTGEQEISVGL

As a reminder, the melting point is the temperature of the solid-liquid transition. As to `CCCCC1CN(C[C@H]2CC[C@H](OC)CC2)C(=O)OC12CCN(C1(C)CCN(C(=O)c3c(C)ncnc3C)CC1)CC2` (stereo partly drawn) [Compound I-3, 5-Butyl-9-[1-(4,6-dimethyl-pyrimidine-5-carbonyl)-4-methyl-piperidin-4-yl]-3-(trans-4-methoxy-cyclohexylmethyl)-1-oxa-3,9-diaza-spiro[5.5]undecan-2-one], the melting point was in the range of 150.8 to 152.9 °C.

As a reminder, the IC50 is the concentration that inhibits the measured activity by half. In the case of `CCCC[C@H]1CN(CC2CCN(S(C)(=O)=O)CC2)C(=O)OC12CCN(C1(C)CCN(C(=O)c3c(C)noc3C(F)(F)F)CC1)CC2` [III-23], the IC50 in the data set with NLBal pseudotyped HIV-1 was 6 nM; at CCR5 [1] (setting [4]), 38.8 nM; against CCR5 [2], under 2.5 nM.

Take `CCCC[C@H]1CN(CC2COC3OCCC23)C(=O)OC12CCN(C1(C)CCN(C(=O)c3c(C)ncnc3C)CC1)CC2` (single isomer, unassigned) [II-6]: on CCR5 [1] (setting [4]), the concentration for half-maximal inhibition (IC50) was 38 nM.

On to `CCCCC1CN(C[C@H]2CC[C@H](OCC)CC2)C(=O)OC12CCN(C1(C)CCN(C(=O)c3c(C)ncnc3C)CC1)CC2` (stereo partly drawn) [Compound I-7, 5-Butyl-9-[1-(4,6-dimethyl-pyrimidine-5-carbonyl)-4-methyl-piperidin-4-yl]-3-(trans-4-ethoxy-cyclohexylmethyl)-1-oxa-3,9-diaza-spiro[5.5]undecan-2-one], for which the melting point was in the range of 188.3 to 189.7 °C.

Molecule `CCCCC1CN(CC2CCN(C(C)=O)CC2)C(=O)OC12CCN(C1(C)CCN(C(=O)c3c(C)ncnc3C)CC1)CC2` (stereo not shown) [III-1, 3-(1-Acetyl-piperidin-4-ylmethyl)-5-butyl-9-[1-(4,6-dimethyl-pyrimidine-5-carbonyl)-4-methyl-piperidin-4-yl]-1-oxa-3,9-diaza-spiro[5.5]undecan-2-one] displayed an IC50 on CCR5 [2] of 25.2 nM.

With `CCCC[C@H]1CN(C2CCC(F)(F)CC2)C(=O)OC12CCN(C1(C)CCN(C(=O)c3c(C)ncnc3C)CC1)CC2` [IV-7, (S)-5-Butyl-3-(4,4-difluoro-cyclohexyl)-9-[1-(4,6-dimethyl-pyrimidine-5-carbonyl)-4-methyl-piperidin-4-yl]-1-oxa-3,9-diaza-spiro[5.5]undecan-2-one], at CCR5 [1] (setting [4]), the IC50 turned out to be 19.2 nM.

With `CCCC[C@H]1CN(CC2CCN(C(=O)OC)CC2)C(=O)OC12CCN(C1(C)CCN(C(=O)c3c(C)ncnc3C)CC1)CC2` [III-6], the IC50 on CCR5 [1] (setting [4]) came to 46.5 nM.

The molecule `CCCC[C@H]1CN(CC2CCN(CC(F)F)CC2)C(=O)OC12CCN(C1(C)CCN(C(=O)c3c(C)cc(C#N)nc3C)CC1)CC2` [III-12] had an IC50 on CCR5 [1] of 49.4 nM.

Take `CCCCC1CN(C[C@H]2CC[C@@H](OCOC)CC2)C(=O)OC12CCN(C1(C)CCN(C(=O)c3c(C)ncnc3C)CC1)CC2` (stereo partly drawn) [Compound I-8, 5-Butyl-9-[1-(4,6-dimethyl-pyrimidine-5-carbonyl)-4-methyl-piperidin-4-yl]-3-(cis-4-methoxymethoxy-cyclohexylmethyl)-1-oxa-3,9-diaza-spiro[5.5]undecan-2-one]: the midpoint of inhibition with NLBal pseudotyped HIV-1, the IC50, lay at 5.2 nM.

Turning to `CCCC[C@H]1CN(C[C@H]2[C@@H]3CN(C(=O)OC)C[C@@H]32)C(=O)OC12CCN(C1(C)CCN(C(=O)c3c(C)noc3C(F)(F)F)CC1)CC2` [III-20], the IC50 with NLBal pseudotyped HIV-1 is 3 nM; at CCR5 [1] (setting [4]), 14 nM; against CCR5 [2], under 2.5 nM.

As for `CCCCC1CN(CC2CCCN(C(C)=O)C2)C(=O)OC12CCN(C1(C)CCN(C(=O)c3c(C)ncnc3C)CC1)CC2` (stereo not shown) [III-2], at CCR5 [2], the midpoint of inhibition, the IC50, lay at 17.4 nM.

For `CCCC[C@H]1CN(C[C@H]2C[C@H]3CC[C@@H](C2)N3C(=O)OC)C(=O)OC12CCN(C1(C)CCN(C(=O)c3c(C)ncnc3C)CC1)CC2` [III-22], the results for the IC50 in the data set on NLBal pseudotyped HIV-1, at CCR5 [1] (setting [4]) and against CCR5 [2] were 2.2 nM, 21.2 nM and 3 nM, respectively.

For the molecule `CCCC[C@H]1CN(C[C@H]2[C@@H]3COC[C@@H]32)C(=O)OC12CCN(C1(C)CCN(C(=O)c3c(C)cc(C(F)F)nc3C)CC1)CC2` [II-4], the IC50 on CCR5 [1] (setting [4]) stood at 10.8 nM.

For `Cc1ccc(-c2ccc3c(c2)C=C(C(=O)Nc2ccc(C[N+](C)(C)C4CCOCC4)cc2)CCC3)cc1.[Cl-]` [TAK-779], in data set [3], the “incidence and severity of arthritis” value was “reduce both the incidence and severity of arthritis”; the “infiltration of inflammatory CCR5+ T-cells into the joint” value was “inhibited”.

Consider `CCCC[C@H]1CN(C[C@H]2COCCO2)C(=O)OC12CCN(C1(C)CCN(C(=O)c3c(C)cc(C#N)nc3C)CC1)CC2` [II-10], for which the IC50 in the data set with NLBal pseudotyped HIV-1 is 2.6 nM; at CCR5 [1] (setting [4]), 17.2 nM; at CCR5 [2] it was 1 nM.

B1: RANTES: CC chemokine, naturally occurring ligand that can stimulate the CCR5 receptor (protein, UniProt P13501 24-91, looked up)
C-C motif chemokine 5: SPYSSDTTPCCFAYIARPLPRAHIKEYFYTSGKCSNPAVVFVTRKNRQVCANPEKKWVREYINSLEMS
With B1, the “HIV entry into the cells” value with HIV was “block HIV entry into the cells”.
